Key:
ACC2 mRNA = assay: Expression of ACC2 mRNA in cultured mouse liver cell line Hepa1-6 (quantitative PCR); assay type: cell-based; settings: Hepa1-6 cells, each of the chlorogenic acids (Production Example 4) 5 mM, 24 hours, control at 100
Experimental: (§1) A cultured mouse liver cell line (Hepa1-6 cell) was cultured in 10% bovine serum-containing Dulbeco's Modified Eagle's Medium (DMEM) at 37° C., 5% CO2. The cells were seeded in a 6-well plate, and when they reached subconfluency, the medium was replaced by a serum free medium (DMEM, -FBS), followed by culturing for further 12 hours. Subsequently, various samples were added (final concentration: chlorogenic acids (Production Example 1) 2.5×10^−4% (w/v) and each of the chlorogenic acids (Production Example 4) 5 mM), and after 24 hours of culturing, total RNA was prepared according to a standard method. After preparing cDNA by reverse transcription reaction, quantitative PCR was performed by ABI PRISM 7000 Sequence Detection System (Applied Biosystems) using Power SYBR Green Master Mix (Applied Biosystems). Also, the expression level of each gene was corrected using the expression level of 36B4 as an internal standard, and represented as a relative expression level by setting the expression level of control at 100.

PDK4 mRNA = assay: Expression of PDK4 mRNA in cultured mouse liver cell line Hepa1-6 (quantitative PCR); assay type: cell-based; settings: Hepa1-6 cells, each of the chlorogenic acids (Production Example 4) 5 mM, 24 hours, control at 100
Experimental: as §1

| Structure (SMILES) | expression of ACC2 mRNA (ACC2 mRNA) | expression of PDK4 mRNA (PDK4 mRNA) |
| --- | --- | --- |
| O=C(/C=C/c1ccc(O)c(O)c1)O[C@@H]1[C@H](O)C[C@@](O)(C(=O)O)C[C@H]1OC(=O)/C=C/c1ccc(O)c(O)c1 [3,4-dicaffeoylquinic acid] | significantly reduced | significantly inhibited |
| O=C(/C=C/c1ccc(O)c(O)c1)O[C@@H]1CC(O)(C(=O)O)C[C@@H](OC(=O)/C=C/c2ccc(O)c(O)c2)C1O (some centres unmarked) [3,5-dicaffeoylquinic acid] | significantly reduced |  |
| O=C(/C=C/c1ccc(O)c(O)c1)O[C@H]1[C@H](O)C[C@](O)(C(=O)O)C[C@H]1O [4-caffeoylquinic acid] | significantly reduced | significantly inhibited |
| O=C(/C=C/c1ccc(O)c(O)c1)O[C@@H]1C[C@](O)(C(=O)O)C[C@@H](O)[C@H]1O [3-caffeoylquinic acid] | significantly reduced | significantly inhibited |
| O=C(/C=C/c1ccc(O)c(O)c1)O[C@H]1[C@H](O)C[C@](O)(C(=O)O)C[C@H]1OC(=O)/C=C/c1ccc(O)c(O)c1 [4,5-dicaffeoylquinic acid] | significantly reduced |  |
